Laboratory results as given in PubChem BioAssay AID1963983 (Molecular Pharmacology Branch, DTP, NCI, 2024).

Test system: 186277-243-T-J2-PDC multi-cell spheroid viability
Test: Anticancer human tumor 186277-243-T-J2-PDC patient-derived colon adenocarcinoma cell line growth inhibition [PI3K]
Details: for IC50: curve of first compound; for viability, T/C: stronger effect = lower value; active = viability on the fitted dose curve at most 10% of control; inactive = the rest
In short: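 Complex 3D spheroids (cancer cells + endothelial HUVEC + mesenchymal stem cells); drug pairs of targeted agent x inavolisib/alpelisib/duvelisib/copanlisib; half-log series from ~Cmax, max 10 microM if Cmax unknown; endpoint viability.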

[1] = second compound 0.00316 µM, first compound 0.0316 µM
[2] = second compound 0.00316 µM, first compound 0.1 µM
[3] = second compound 0.00316 µM, first compound 0.316 µM
[4] = second compound 0.00316 µM, first compound 1 µM
[5] = second compound 0.00316 µM, first compound 3.16 µM
[6] = second compound 0.00316 µM, first compound 10 µM
[7] = second compound 0.01 µM, first compound 0.0316 µM
[8] = second compound 0.01 µM, first compound 0.1 µM
[9] = second compound 0.01 µM, first compound 0.316 µM
[10] = second compound 0.01 µM, first compound 1 µM
[11] = second compound 0.01 µM, first compound 3.16 µM
[12] = second compound 0.01 µM, first compound 10 µM
[13] = second compound 0.0316 µM, first compound 0.0316 µM
[14] = second compound 0.0316 µM, first compound 0.1 µM
[15] = second compound 0.0316 µM, first compound 0.316 µM
[16] = second compound 0.0316 µM, first compound 1 µM
[17] = second compound 0.0316 µM, first compound 3.16 µM
[18] = second compound 0.0316 µM, first compound 10 µM
[19] = second compound 0.1 µM, first compound 0.0316 µM
[20] = second compound 0.1 µM, first compound 0.1 µM
[21] = second compound 0.1 µM, first compound 0.316 µM
[22] = second compound 0.1 µM, first compound 1 µM
[23] = second compound 0.1 µM, first compound 3.16 µM
[24] = second compound 0.1 µM, first compound 10 µM
[25] = second compound 0.316 µM, first compound 0.0316 µM
[26] = second compound 0.316 µM, first compound 0.1 µM
[27] = second compound 0.316 µM, first compound 0.316 µM
[28] = second compound 0.316 µM, first compound 1 µM
[29] = second compound 0.316 µM, first compound 3.16 µM
[30] = second compound 0.316 µM, first compound 10 µM
[31] = second compound 1 µM, first compound 0.0316 µM
[32] = second compound 1 µM, first compound 0.1 µM
[33] = second compound 1 µM, first compound 0.316 µM
[34] = second compound 1 µM, first compound 1 µM
[35] = second compound 1 µM, first compound 3.16 µM
[36] = second compound 1 µM, first compound 10 µM
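Note: spheroids exposed to compounds for seven days before viability reading.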
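Throughout, for viability, T/C: 100% = DMSO vehicle control viability.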

Cn1ncc(Cl)c1-c1cc(C(=O)NC(CN)Cc2cccc(F)c2)sc1Cl (stereo unspecified) + CC(Nc1ccc2c(c1)OCCn1cc(N3C(=O)OCC3C(F)F)nc1-2)C(N)=O
608 nM: IC50 (second compound 0.00316 µM)
422 nM: IC50 (second compound 0.01 µM)
< 31.6 nM: IC50 (second compound 1 µM)
inactive: viability, T/C [1] 82.7% | viability, T/C [2] 73.8% | viability, T/C [3] 48.5% | viability, T/C [4] 45.4% | viability, T/C [5] 39.2% | viability, T/C [6] 10.5% | viability, T/C [7] 106% | viability, T/C [8] 76.3% | viability, T/C [9] 44.6% | viability, T/C [10] 44.1% | viability, T/C [11] 34.3% | viability, T/C [12] 8.87% | viability, T/C [13] 103% | viability, T/C [14] 88% | viability, T/C [15] 45.6% | viability, T/C [16] 29% | viability, T/C [17] 23% | viability, T/C [18] 5.6% | viability, T/C [19] 88.5% | viability, T/C [20] 77.6% | viability, T/C [21] 36.3% | viability, T/C [22] 21.9% | viability, T/C [23] 16.6% | viability, T/C [24] 4.47% | viability, T/C [25] 64.6% | viability, T/C [26] 39.7% | viability, T/C [27] 27.7% | viability, T/C [28] 14.7% | viability, T/C [31] 45.1% | viability, T/C [32] 25.5% | viability, T/C [33] 12.5%
226 nM: IC50 (second compound 0.1 µM)
339 nM: IC50 (second compound 0.0316 µM)
64.6 nM: IC50 (second compound 0.316 µM)
active: viability, T/C [29] 13.5% | viability, T/C [30] 3.25% | viability, T/C [34] 11% | viability, T/C [35] 10.1% | viability, T/C [36] 1.75%

C#Cc1c(F)ccc2cc(O)cc(-c3ncc4c(N5CC6CCC(C5)N6)nc(OCC56CCCN5CC(F)C6)nc4c3F)c12 (stereo unspecified) + Cc1nc(NC(=O)N2CCCC2C(N)=O)sc1-c1ccnc(C(C)(C)C(F)(F)F)c1
46.8 nM: IC50 (second compound 0.1 µM)
< 31.6 nM: IC50 (second compound 0.316 µM) | IC50 (second compound 1 µM) | IC50 (second compound 3.16 µM) | IC50 (second compound 10 µM)
active: viability, T/C [23] 8.35% | viability, T/C [24] 7.01% | viability, T/C [27] 7.34% | viability, T/C [28] 12.6% | viability, T/C [29] 6.32% | viability, T/C [30] 6.56% | viability, T/C [33] 10.3% | viability, T/C [34] 6.06% | viability, T/C [35] 4.61% | viability, T/C [36] 1.79% | viability, T/C (second compound 3.16 µM, first compound 0.1 µM) 5.57% | viability, T/C (second compound 3.16 µM, first compound 0.316 µM) 3.63% | viability, T/C (second compound 3.16 µM, first compound 1 µM) 4.54% | viability, T/C (second compound 3.16 µM, first compound 3.16 µM) 3.29% | viability, T/C (second compound 3.16 µM, first compound 10 µM) 1.25% | viability, T/C (second compound 10 µM, first compound 0.0316 µM) 3.63% | viability, T/C (second compound 10 µM, first compound 0.1 µM) 3.77% | viability, T/C (second compound 10 µM, first compound 0.316 µM) 2.79% | viability, T/C (second compound 10 µM, first compound 1 µM) 2% | viability, T/C (second compound 10 µM, first compound 3.16 µM) 0.83% | viability, T/C (second compound 10 µM, first compound 10 µM) 0.22%
74.4 nM: IC50 (second compound 0.0316 µM)
inactive: viability, T/C [13] 84.8% | viability, T/C [14] 37.5% | viability, T/C [15] 20% | viability, T/C [16] 13.5% | viability, T/C [17] 10.9% | viability, T/C [18] 9.63% | viability, T/C [19] 60.6% | viability, T/C [20] 29.4% | viability, T/C [21] 15.1% | viability, T/C [22] 11.4% | viability, T/C [25] 30.4% | viability, T/C [26] 15.5% | viability, T/C [31] 17.2% | viability, T/C [32] 9.55% | viability, T/C (second compound 3.16 µM, first compound 0.0316 µM) 12.9%

C[C@@H](NC(=O)c1ncnc(N)c1Cl)c1ncc(C(=O)Nc2cc(C(F)(F)F)c(Cl)cn2)s1 + CC(Nc1ccc2c(c1)OCCn1cc(N3C(=O)OCC3C(F)F)nc1-2)C(N)=O
> 10000 nM: IC50 (second compound 0.00316 µM) | IC50 (second compound 0.01 µM) | IC50 (second compound 0.0316 µM)
344 nM: IC50 (second compound 1 µM)
1850 nM: IC50 (second compound 0.316 µM)
active: viability, T/C [36] 4.09%
5930 nM: IC50 (second compound 0.1 µM)
inactive: viability, T/C [1] 83.2% | viability, T/C [2] 87.1% | viability, T/C [3] 93% | viability, T/C [4] 99.1% | viability, T/C [5] 113% | viability, T/C [6] 75.8% | viability, T/C [7] 103% | viability, T/C [8] 101% | viability, T/C [9] 96.2% | viability, T/C [10] 102% | viability, T/C [11] 108% | viability, T/C [12] 72.4% | viability, T/C [13] 98.6% | viability, T/C [14] 107% | viability, T/C [15] 101% | viability, T/C [16] 104% | viability, T/C [17] 93.7% | viability, T/C [18] 56.1% | viability, T/C [19] 97.4% | viability, T/C [20] 105% | viability, T/C [21] 96.4% | viability, T/C [22] 108% | viability, T/C [23] 72.8% | viability, T/C [24] 31.1% | viability, T/C [25] 85.9% | viability, T/C [26] 92.4% | viability, T/C [27] 87.3% | viability, T/C [28] 67.5% | viability, T/C [29] 34.4% | viability, T/C [30] 12.8% | viability, T/C [31] 56.2% | viability, T/C [32] 54.4% | viability, T/C [33] 51.4% | viability, T/C [34] 35.8% | viability, T/C [35] 13.7%
